In US11491173B2, “Pharmaceutical composition and application thereof” (priority 2018, dated 2022):
Where “and” joins values, the source holds several entries; their conditions need not be identical. Equal values may be shown once.

Legend:
[1] = test system: H9c2 cardiomyocyte damage induced by hypoxia; test: Hypoxia-induced H9c2 cardiomyocyte damage, nucleus number (Hoechst 33342, high-content imaging); format: cell-based; conditions: for nucleus number (Table 7): individual replicates N1-N3, 0.4 mg/mL DMSO stock diluted with medium
Procedure: (§1) 2. Experimental methods: QSYQ-1 and QSYQ-2, and each active ingredient group were ultrasonically dissolved and prepared into a 0.4 mg/mL of stock solution with DMSO. When in vitro activity evaluation was performed, the above groups were diluted with the same amount of experimental medium respectively.
(§2) The cells were collected at the logarithmic growth phase and added to a 96-well culture plate with a black transparent bottom at a concentration of 5000 cells per well and a volume of 100 μL per well. The cells were incubated in an incubator with 5% CO2 at 37° C. for 24 hours. Subsequently, the tested groups were added to the experimental groups respectively, incubated for 24 hours, and then placed in a hypoxic chamber passing a mixed gas composed of 95% nitrogen and 5% CO2 at a flow rate of 15 L/min for 10 mins, and incubated for another 8 hours after inducing hypoxia damage at 37° C. The model group was only incubated for 8 hours under hypoxia, and the blank control group was incubated normally.
(§3) The labeling operation of cell fluorescent probe was as follows: the mother liquor of fluorescent probe Hoechst 33342 was diluted 1000-fold into a DMEM basic medium; then the mother liquor of MitoTracker Deep Red FM was diluted 10000-fold into a culture medium containing Hoechst 33342 to serve as a “cocktail” stain. The medium in the culture plate was discarded and replaced with the “cocktail” stain, 50 μL per well, and incubated in an incubator away from light for 30 mins. The plate was taken out away from light, and washed with DMEM (high glucose) for 3 times and 5 minutes each time. Live cell imaging was performed subsequently.
(§4) The operation of live cell imaging with HCS was as follows: an excitation light of 360-400 and an emission light of 410-480 were selected for the imaging of Hoechst 33342-labeled nuclei; an excitation light of 620-640 and an emission light of 650-760 were selected for the imaging of MitoTracker Deep Red FM-labeled mitochondria. Harmony 3.0 software was applied to analyze the HCS imaging and read the fluorescence intensities of the nucleus/cytoplasm. The HCS screening system combined the automatic fluorescence microscopy imaging functions, and can perform a high-throughput multi-index analysis. Columbus high-efficiency image and data management and analysis system were applied to perform a secondary analysis and management of the image and data, and draw the dosage-dependent curve relationship.

[2] = test system: H9c2 cardiomyocyte damage induced by hypoxia; test: Hypoxia-induced H9c2 cardiomyocyte damage, mitochondrial function (MitoTracker Deep Red FM, high-content imaging); format: cell-based; conditions: for mitochondrial function (Table 9): individual replicates N1-N3
Procedure: as §1, §2, §3, §4

[3] = mean of N1-N3, 24 h pre-incubation, then hypoxia 8 h
[4] = 24 h pre-incubation, then hypoxia 8 h

Row | SMILES | nucleus number, Mean (Table 7) [1, 3] | mitochondrial function, Mean (Table 9) [2, 3] | nucleus number (Table 7) [1, 4] | mitochondrial function (Table 9) [2, 4] | nucleus number, Mean (Table 7) ([1]; 8 h) | mitochondrial function, Mean (Table 9) ([2]; 8 h) | mitochondrial function (Table 9) ([2]; 24 h pre-incubation, then hypoxia 8 h, listed as Notoainsenoside R1) | mitochondrial function (Table 9) ([2]; 24 h pre-incubation, then hypoxia 8 h, listed as Saivianolic acid A) | mitochondrial function (Table 9) ([2]; 24 h pre-incubation, then hypoxia 8 h, listed as Saivianolic acid G)
1 | COc1ccc(-c2coc3cc(O)ccc3c2=O)cc1O [Calycosin, calycosin] | 386.0 | 905.6 |  |  |  |  |  |  | 
2 | COc1ccc(-c2coc3cc(O[C@@H]4O[C@H](CO)[C@@H](O)[C@H](O)[C@H]4O)ccc3c2=O)cc1O [Calycosin-7-glucoside, calycosin-7-glucoside] | 333.7 | 902.3 | 312 and 366 and 323 | 967.77 and 861.05 and 877.99 |  |  |  |  | 
3 | C[C@H]1COC2=C1C(=O)C(=O)c1c2ccc2c1CCCC2(C)C [Cryptotanshinone, cryptotanshinone] | 349.0 | 853.8 |  |  |  |  |  |  | 
4 | O=C(O)[C@H](O)Cc1ccc(O)c(O)c1 [Danshensu] | 346.3 | 879.0 | 326 and 371 and 342 | 909.24 and 845.81 and 882.04 |  |  |  |  | 
5 | Cc1cccc2c3c(ccc12)C1=C(C(=O)C3=O)[C@@H](C)CO1 [Dihydrotanshinone I, dihydrotanshinone I] | 339.7 | 887.3 | 303 and 373 and 313 | 930.1 and 918.77 and 813.04 |  |  |  |  | 
6 | COc1ccc(-c2coc3cc(O)ccc3c2=O)cc1 [Formononetin, formononetin] | 376.3 | 863.7 |  |  |  |  |  |  | 
7 | CC(C)=CCC[C@](C)(O[C@@H]1O[C@H](CO[C@@H]2O[C@H](CO)[C@@H](O)[C@H](O)[C@H]2O)[C@@H](O)[C@H](O)[C@H]1O)[C@H]1CC[C@]2(C)[C@@H]1[C@H](O)C[C@@H]1[C@@]3(C)CC[C@H](O[C@@H]4O[C@H](CO)[C@@H](O)[C@H](O)[C@H]4O[C@@H]4O[C@H](CO)[C@@H](O)[C@H](O)[C@H]4O)C(C)(C)[C@@H]3CC[C@]12C [Ginsenoside Rb1, ginsenoside Rb1] | 404.0 | 814.6 | 406 and 420 and 386 | 778.78 and 843.1 and 822.04 |  |  |  |  | 
8 | CC(C)=CCC[C@](C)(O[C@@H]1O[C@H](CO)[C@@H](O)[C@H](O)[C@H]1O)[C@H]1CC[C@]2(C)[C@@H]1[C@H](O)C[C@@H]1[C@@]3(C)CC[C@H](O[C@@H]4O[C@H](CO)[C@@H](O)[C@H](O)[C@H]4O[C@@H]4O[C@H](CO)[C@@H](O)[C@H](O)[C@H]4O)C(C)(C)[C@@H]3CC[C@]12C [Ginsenoside Rd, ginsenoside Rd] |  |  |  |  | 408.0 | 820.9 |  |  | 
9 | CC(C)=CCC[C@](C)(O[C@@H]1O[C@H](CO)[C@@H](O)[C@H](O)[C@H]1O)[C@H]1CC[C@]2(C)[C@@H]1[C@H](O)C[C@@H]1[C@@]3(C)CC[C@H](O)C(C)(C)[C@@H]3[C@@H](O[C@@H]3O[C@H](CO)[C@@H](O)[C@H](O)[C@H]3O)C[C@]12C [Ginsenoside Rg1, ginsenoside Rg1] | 308.0 | 905.5 | 264 and 310 and 350 | 843.46 and 918.73 and 954.27 |  |  |  |  | 
10 | O=C(/C=C/c1ccc(O)c2c1C=Cc1cc(O)c(O)cc1O2)O[C@H](Cc1ccc(O)c(O)c1)C(=O)O [Isosalvianolic acid C, isosalvianolic acid C] | 304.0 | 772.6 | 293 (2×) and 326 | 766.96 and 812.08 and 738.89 |  |  |  |  | 
11 | O=C(/C=C/c1ccc(O)c2c1[C@H](C(=O)O)[C@@H](c1ccc(O)c(O)c1)O2)O[C@H](Cc1ccc(O)c(O)c1)C(=O)O [Lithospermic acid, lithospermic acid] | 356.0 | 811.6 |  |  |  |  |  |  | 
12 | CC(C)=CCC[C@](C)(O[C@@H]1O[C@H](CO)[C@@H](O)[C@H](O)[C@H]1O)[C@H]1CC[C@]2(C)[C@@H]1[C@H](O)C[C@@H]1[C@@]3(C)CC[C@H](O)C(C)(C)[C@@H]3[C@@H](O[C@@H]3O[C@H](CO)[C@@H](O)[C@H](O)[C@H]3O[C@@H]3OC[C@@H](O)[C@H](O)[C@H]3O)C[C@]12C [Notoginsenoside R1, notoginsenoside R1] | 366.0 | 925.9 | 360 and 383 and 355 |  |  |  | 841.9 and 950.39 and 985.33 |  | 
13 | COc1ccc(-c2coc3cc(O[C@@H]4O[C@H](CO)[C@@H](O)[C@H](O)[C@H]4O)ccc3c2=O)cc1 [Ononin, ononin] | 366.0 | 695.0 |  |  |  |  |  |  | 
14 | O=Cc1ccc(O)c(O)c1 [Protocatechuic aldehyde, protocatechuic aldehyde] | 336.3 | 909.7 | 361 and 345 and 303 | 946.04 and 881.05 and 901.89 |  |  |  |  | 
15 | O=C(/C=C/c1ccc(O)c(O)c1)O[C@H](Cc1ccc(O)c(O)c1)C(=O)O [Rosmarinic acid, rosmarinic acid] | 345.3 | 790.6 |  |  |  |  |  |  | 
16 | O=C(/C=C/c1ccc(O)c(O)c1/C=C/c1ccc(O)c(O)c1)O[C@H](Cc1ccc(O)c(O)c1)C(=O)O [Salvianolic acid A, salvianolic acid A] | 268.3 | 905.1 | 264 and 287 and 254 |  |  |  |  | 914.19 and 859.26 and 941.93 | 
17 | O=C(/C=C/c1ccc(O)c2c1[C@H](C(=O)O[C@H](Cc1ccc(O)c(O)c1)C(=O)O)[C@@H](c1ccc(O)c(O)c1)O2)O[C@H](Cc1ccc(O)c(O)c1)C(=O)O [Salvianolic acid B, salvianolic acid B] | 394.7 | 855.2 | 385 and 364 and 435 | 801.62 and 853.39 and 910.53 |  |  |  |  | 
18 | O=C(O)Cc1c(/C=C/C(=O)O[C@H](Cc2ccc(O)c(O)c2)C(=O)O)ccc(O)c1O [Salvianolic acid D, salvianolic acid D] | 271.7 | 922.3 | 306 and 236 and 273 | 946.71 and 900.04 and 920.17 |  |  |  |  | 
19 | O=C(O)C1Cc2ccc(O)c3c2C(=Cc2ccc(O)c(O)c2O3)C1=O (stereo not shown) [Salvianolic acid G, salvianolic acid G] | 366.3 | 867.7 | 380 and 328 and 391 |  |  |  |  |  | 870.9 and 831.06 and 901.01
20 | O=C(/C=C/c1ccc(O)c(O)c1/C(=C\c1ccc(O)c(O)c1)C(=O)O)O[C@H](Cc1ccc(O)c(O)c1)C(=O)O [Salvianolic acid T, salvianolic acid T] | 296.0 | 842.6 | 325 and 279 and 284 | 815.14 and 888.53 and 824.27 |  |  |  |  | 
21 | O=C(/C=C/c1ccc(O)c(O)c1/C(=C\c1ccc(O)c(O)c1)C(=O)O)O[C@H](Cc1ccc(O)c(O)c1)C(=O)O [Salvianolic acid U, salvianolic acid U] | 305.3 | 909.3 | 349 and 315 and 252 | 992.37 and 840.14 and 895.53 |  |  |  |  | 
